The source of these data is ChEMBL document CHEMBL5257056, “Accelerated Discovery of Macrocyclic CDK2 Inhibitor QR-6401 by Generative Models and Structure-Based Drug Design” (ACS Med Chem Lett, 2023).

Data set [1] in a line: in vitro. The settings on record: dog, MDCK-MDR1.
The nature of data set [2]: in vitro. The settings on record: human, microsomes.

The compound `O=C1NCCCNC(=O)c2cccc(n2)Nc2cc([nH]n2)[C@H]2CC[C@H](C2)O1` registered an apical-to-basolateral permeability (Papp A→B) at […], 5 µM in “in vitro [1]” of 0.9 ×10⁻⁶ cm/s. In the data set “in vitro [2]”, this compound gave a half-life at 0.75 h, 1 µM of 1.07 h.
